The text below walks through data of US9127016B2, “Small molecule inhibitors of Dusp6 and uses therefor” (University of Pittsburgh—Of the Commonwealth System of …, priority 2009, dated 2015).

Holding throughout (format): biochemical
One experiment addresses T1, Cdc25B (Homo sapiens, UniProt P30305).
T1 sequence (P30305 1-580): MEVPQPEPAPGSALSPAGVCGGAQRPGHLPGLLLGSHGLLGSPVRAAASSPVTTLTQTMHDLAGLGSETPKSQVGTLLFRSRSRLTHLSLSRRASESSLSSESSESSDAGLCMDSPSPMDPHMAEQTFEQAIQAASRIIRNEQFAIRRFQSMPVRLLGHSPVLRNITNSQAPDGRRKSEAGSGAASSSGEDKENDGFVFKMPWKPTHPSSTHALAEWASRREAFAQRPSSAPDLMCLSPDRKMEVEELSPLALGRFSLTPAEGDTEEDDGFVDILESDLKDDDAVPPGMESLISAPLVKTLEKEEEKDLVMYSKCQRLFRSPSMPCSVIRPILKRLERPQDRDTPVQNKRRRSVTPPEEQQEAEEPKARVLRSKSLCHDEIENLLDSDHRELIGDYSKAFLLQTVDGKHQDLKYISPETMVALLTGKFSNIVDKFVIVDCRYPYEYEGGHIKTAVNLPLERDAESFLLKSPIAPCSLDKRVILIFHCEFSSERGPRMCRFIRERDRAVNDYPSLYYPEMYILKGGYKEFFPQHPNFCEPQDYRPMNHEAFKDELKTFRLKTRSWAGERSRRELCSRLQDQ
Briefly: OMFP phosphatase assay, Cdc25B. The conditions noted are these: n=3, OMFP substrate, 15.2 nM-300 μM; read-out: mean in vitro values, Cdc25B. The method, then: (§1) Enzyme activities in the presence or absence of BCI were measured using the artificial substrate […] at concentrations equal to the Km of each enzyme (Cdc25B, PTP1B & Dusp3/VHR) and at optimal pH for individual enzyme activity in a 96-well microtiter plate assay based on previously described methods by Lazo et al. (J Med Chem 44, 4042-9 (2001) and Lazo, J. S. et al. Bioorg Med Chem 14, 5643-50 (2006)). Briefly, the standard assay conditions contained 0.02 mg/ml OMFP in assay buffer (30 mM Tris-HCl (pH8.0), 75 mM NaCl, 1 mM EDTA, 0.33% BSA and 1 mM DTT). Fluorescence emission was measured after a sixty-minute incubation period at ambient temperature using a multiwell plate reader (SpectraMax m5, […]; excitation 485 nm, emission 525 nm). Sodium orthovanadate (100 μM) was used as a positive control for full phosphatase inhibition. IC50 concentrations were determined from three experiments using 10 concentrations of BCI ranging from 300 μM to 15.2 nM and GraphPad Prism 5.0 software.

In another experiment the target is T2, PTP1B (Homo sapiens, UniProt P18031).
T2 sequence (P18031 1-435): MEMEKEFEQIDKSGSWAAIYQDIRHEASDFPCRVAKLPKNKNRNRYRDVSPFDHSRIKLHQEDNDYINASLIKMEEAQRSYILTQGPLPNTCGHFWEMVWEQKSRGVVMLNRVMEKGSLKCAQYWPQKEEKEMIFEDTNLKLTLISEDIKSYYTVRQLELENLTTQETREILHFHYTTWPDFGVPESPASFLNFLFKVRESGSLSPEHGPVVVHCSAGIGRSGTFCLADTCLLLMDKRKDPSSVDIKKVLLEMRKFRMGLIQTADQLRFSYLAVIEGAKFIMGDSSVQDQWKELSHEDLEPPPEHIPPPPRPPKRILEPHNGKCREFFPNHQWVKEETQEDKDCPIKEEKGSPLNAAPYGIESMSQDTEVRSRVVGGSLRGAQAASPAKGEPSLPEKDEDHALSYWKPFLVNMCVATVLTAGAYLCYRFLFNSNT
The experiment can be described thus: OMFP phosphatase assay, PTP1B. The conditions noted are these: n=3, OMFP substrate, 15.2 nM-300 μM; read-out: mean in vitro values, PTP1B. Here is the method: as §1

The next experiment deals with Dusp3/VHR (Homo sapiens, UniProt P51452). The experiment can be described thus: OMFP phosphatase assay, Dusp3/VHR. As to conditions: n=3, OMFP substrate, 15.2 nM-300 μM; read-out: mean in vitro values, VHR. The method, then:
as §1

In another experiment the target is T3, Dusp6 (Homo sapiens, UniProt Q16828).
T3 sequence (Q16828 1-381): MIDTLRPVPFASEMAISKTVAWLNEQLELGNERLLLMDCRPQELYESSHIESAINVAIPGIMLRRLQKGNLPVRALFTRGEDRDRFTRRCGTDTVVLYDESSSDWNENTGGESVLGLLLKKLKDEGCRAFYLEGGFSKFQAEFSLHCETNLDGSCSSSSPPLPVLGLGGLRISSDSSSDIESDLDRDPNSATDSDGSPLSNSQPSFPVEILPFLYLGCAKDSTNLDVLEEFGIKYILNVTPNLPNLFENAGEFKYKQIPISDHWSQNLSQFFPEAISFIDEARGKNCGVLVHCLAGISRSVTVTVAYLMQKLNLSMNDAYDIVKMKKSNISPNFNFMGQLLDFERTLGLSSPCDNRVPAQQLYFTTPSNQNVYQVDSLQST
Briefly: Basal Dusp6 dephosphorylation of OMFP. Further details: His; made in house. As to conditions: 100 μM. The method, then: For OMFP based ERK2 induced activation of Dusp6, recombinant His-tagged Dusp6 was expressed from a bacterial expression vector and 250 ng were incubated with the indicated concentrations of NSC95397 or BCI. OMFP was added at its apparent Km (100 μM) (Vogt, A. et al. J Biol Chem 280, 19078-86 (2005)). The final reaction volume was 15 μl. After 1 h at RT, OMF fluorescence was measured on an M5 multimode reader (Molecular Devices) at excitation/emission wavelengths of 485/525 nm. To assay activated Dusp6, 210 ng or 2.1 μg of recombinant ERK2 (Cell signaling) were added to Dusp6(210 ng)/BCI(100 μM) mixtures to measure activation at 1:1 and 1:10 ratio of substrate to enzyme. OMFP was immediately added and fluorescence (ex485/em525 nm) was read every 10 min for 130 min. Fold activation was calculated at 60 mins in each experiment.

Dusp3/VHR, sequence (P51452 whole entry): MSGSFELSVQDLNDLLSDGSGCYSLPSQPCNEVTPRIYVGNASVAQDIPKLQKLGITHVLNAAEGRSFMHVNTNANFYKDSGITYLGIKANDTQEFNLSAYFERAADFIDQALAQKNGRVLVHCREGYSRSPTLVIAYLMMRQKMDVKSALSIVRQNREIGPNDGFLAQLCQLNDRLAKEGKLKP

For the compound `O=C1/C(=C/c2ccccc2)C(NC2CCCCC2)c2ccccc21` (stereo not shown) [Compound 3, (E)-2-benzylidene-3-(cyclohexylamino)-2,3-dihydro-1H-inden-1-one], the IC50 on Cdc25B, at PTP1B and at Dusp3/VHR was greater than 300 µM each time. Besides, the “inhibition of basal Dusp6 activity toward OMFP” value against Dusp6 is “did not inhibit basal Dusp6 activity”.
